# Assays:
# [1] = tested on: phosphorylation of histone H2AX in HCT-15 cells; assay: In-cell Western assay for phosphorylation of histone H2AX; format: cell-based; settings: 4 h of drug treatment
# [2] = tested on: MCF-7; settings: MCF7 cells, 72 h treatment
# [3] = tested on: phosphorylation of histone H2AX in MCF7 cells; assay: In-cell Western assay for phosphorylation of histone H2AX; format: cell-based; settings: 4 h
# [4] = tested on: panel of cell lines; assay: Cytotoxicity in a panel of cell lines; format: cell-based
# [5] = tested on: supercoiled plasmid DNA; assay: In vitro DNA damage assay; format: biochemical
# [6] = tested on: MDR1/MRP in HCT-15 cells; format: cell-based
# [7] = tested on: cell lines in which MDR1 was overexpressed; settings: MDR1 overexpressed by drug selection or transfection; cited from earlier work
# [8] = tested on: human colon carcinoma cell line LS174T; settings: LS174T subcutaneously implanted in nude mice; cited from earlier work
# [9] = tested on: HCT-15
compound,measurement,setting,value
bleomycin,induction of phosphorylation of histone H2AX,[1],induced dose-dependent phosphorylation of histone H2AX
CC(C)(O)CCc1ccc(O)c2c(=O)c3c(O)c4c(cc3oc12)O[C@H]1OCC[C@@]41O [dihydro-austocystin D],cytotoxicity (growth inhibition),[2],very weak
same,induction of the DNA damage response (phosphorylation of histone H2AX),[3],very weak
COc1cccc2c1C(=O)c1c(O)c3c(c(O)c1C2=O)C[C@@](O)(C(=O)CO)C[C@@H]3O[C@H]1C[C@H](N)[C@H](O)[C@H](C)O1 [doxorubicin],induction of phosphorylation of histone H2AX,[1],induced dose-dependent phosphorylation of histone H2AX
CC(C)(O)CCc1ccc(O)c2c(=O)c3c(O)c4c(cc3oc12)O[C@H]1OC=C[C@@]41O [austocystin D],GI50,"[4]; 72 h, read-out: GI50 values for three cell lines",< 10 nM
same,selectivity between sensitive and resistant cell lines,[4]; 72 h cytotoxicity panel,over 1000 fold
same,requirement for increased nicked DNA,[5]; 1 μM austocystin D with different additives,only in the presence of both liver microsomes and the NADPH regenerating system
same,concentration causing direct DNA damage (nicking of supercoiled plasmid DNA),"[5]; human liver microsomes and NADPH regenerating system, 4 h, 37 °C",100 nM
same,inhibition of calcein-AM efflux (retention of calcein),[6],inhibited efflux of calcein-AM
same,fold more potent in cell lines in which MDR1 was overexpressed,[7],20 fold
same,induction of phosphorylation of histone H2AX,[1],induced the phosphorylation of histone H2AX
same,tumor growth in vivo,[8],inhibited the growth
CC(=O)N1CCN(c2ccc(OCC3COC(Cn4ccnc4)(c4ccc(Cl)cc4Cl)O3)cc2)CC1 (centres unmarked) [ketoconazole],effect on austocystin D cytotoxicity,[9],fully prevented
CC[C@@]1(O)C(=O)OCc2c1cc1n(c2=O)Cc2cc3ccccc3nc2-1 [camptothecin],induction of phosphorylation of histone H2AX,[1],induced dose-dependent phosphorylation of histone H2AX

# Source: PMC3081663 (Journal of Natural Products, 2011)
